# Laboratory results: ChEMBL document CHEMBL4390680, “In silico study of M18 aspartyl amino peptidase (M18AAP) of Plasmodium vivax as an antimalarial drug target” (Bioorg Med Chem, 2019)
# Experiment: Inhibition of Plasmodium vivax aminopeptidase-M18
row,SMILES,pIC50
1,Oc1ccc(C2CCCN(c3ccnc4ccccc34)C2)cc1O (stereo unspecified),5.377
2,Oc1ccc(C2CCN(c3ccnc4ccccc34)C2)cc1O (stereo unspecified),6.031
3,Oc1cccc(CCNc2ccnc3ccccc23)c1O,5.569
4,Oc1ccc(C2CCN(c3ccnc4ccccc34)CC2)cc1O,5.887
5,Oc1ccc(CCNc2c3ccccc3nc3ccccc23)cc1,6.155
6,Oc1ccc(CCNc2c3c(nc4ccccc24)CCCC3)cc1O,5.443
7,Cc1c(OCc2ccccc2)c(=O)ccn1CCNc1c2ccccc2nc2ccccc12,5.398
8,COc1cccc(CCNc2c3ccccc3nc3ccccc23)c1,6.221
9,NCCNc1c2ccccc2nc2ccccc12,6.301
10,COc1ccc(CCNc2c3ccccc3nc3ccccc23)cc1,5.959
11,Oc1ccc(CCNC2CCN(Cc3ccccc3)CC2)cc1O,5.187
12,COc1cc(Br)c(CCNc2c3c(nc4ccccc24)CCCC3)cc1OC,5.522
13,Oc1ccc(CCCNc2c3ccccc3nc3ccccc23)cc1O,5.432
14,Oc1ccc(CCN2CCc3ccccc3C2)cc1O,5.102
15,CN(CCc1ccc(O)c(O)c1)c1ccnc2ccccc12,5.319
16,O=c1ccn(CCNc2c3ccccc3nc3ccccc23)cc1OCc1ccccc1,5.328

# The next lines start with the values.
row,pIC50,SMILES
1,6.208,Oc1ccc(CCNc2ccnc3cc(Cl)ccc23)cc1O
2,5.347,COc1ccc(CCNc2cncc3ccccc23)cc1OC
3,5.347,COc1ccc(CCN(C)c2c3ccccc3nc3ccccc23)cc1OC
4,6.522,COc1cc(Br)c(CCNc2c3ccccc3nc3ccccc23)cc1OC
5,5.658,COc1ccc(CCCNc2c3ccccc3nc3ccccc23)cc1OC
6,5.328,Cc1cccc2c(NCCc3ccc(O)c(O)c3)ccnc12
7,5.161,COc1ccc(CCNC2CCN(Cc3ccccc3)CC2)cc1OC
8,5.61,COc1ccc(CCNc2c3ccccc3nc3ccccc23)cc1OC
9,5.854,CCOc1ccc2nccc(NCCc3ccc(OC)c(OC)c3)c2c1
10,6.347,COc1cc(Br)c(CCNc2ccnc3ccccc23)cc1OC
11,5.699,COc1ccc(C2CCN(c3ccnc4ccccc34)C2)cc1OC (stereo unspecified)
12,5.24,COc1ccc(CCN(C)c2ccnc3cc(Cl)ccc23)cc1OC
13,5.409,Oc1ccc(CCNc2ccnc3ccccc23)cc1O
14,5.979,COc1ccc(CNc2c3ccccc3nc3ccccc23)cc1OC
15,6.18,COc1ccc(CCNc2ccnc3cc(Cl)ccc23)cc1OC
